Each block holds one molecule with its values, some of them ahead of it.
Legend:
[1] = test system: A2E formation from all-trans-retinal and ethanolamine; assay: In vitro A2E formation in the presence of aromatic amine
Protocol: 100 mg (355 μmoles) of all-trans-retinal was dissolved in 3 mL followed by the addition of 9.5 μL of glacial acetic acid 9.5 μL of ethanolamine (155 μmoles). This solution was aliquoted into 300 μL fractions. 3-aminoethylbenzoate (15.5 μmoles) was added to the samples at 0, 2, 3.75, 14, 16.25, 18.0833 19.917 23.75 and 48 hrs. […] The solutions were shaken at room temperature for 48 hrs. The solutions were then kept at −80° C. and 15 μL was diluted to 250 μL (methanol). The solutions (15 μL) were then analyzed on a reverse phase (C18-5 μm-4.6 mm×150 mm) column on a linear gradient 85%-96% methanol/water and UV detector at 430 nm to determine the amount of A2E formation. The percent A2E formation was compared to A2E formation at 48 h in the absence of aromatic amine.

abcr knockout mice = assay: In vivo A2E accumulation in abcr knockout mice; details: versus no drug
Protocol: Effects on accumulation of A2E in abcr knockout mice by farnesyl decyl ketone and N-palmityl farnesimide were investigated. Mice were injected with 50 mg/kg drug in 25 microliters of DMSO or with only DMSO for the control group once or twice a week. After 2 to 2½ months, the mice were sacrificed, and A2E and iso-A2E were harvested and quantitated from 4 eyes for each drug or control.

[2] = test system: bovine retinal pigment epithelial membrane system (11-cis-retinol formation); assay: 11-cis-retinol formation in RPE membranes (IMH activity / RPE65 function); type: biochemical
Protocol: A control reaction mixture without any inhibitor was also incubated at room temperature for 15 min. At the end of the 15 min incubation, all-trans-retinol [11-12-^3H2] (0.2 μM) was added to the reaction mixtures (100 mM Tris pH 8.0, […] of RPE protein, 0.2% BSA 100 μM of DPPC, 1 mM of DTT and 0.2 μM all-trans-retinol [11-12-^3H2]) and incubated at room temperature for 30 min. At the end of this 30 minutes of incubation, an aliquot of the reactions were quenched to verify the equal addition of all-trans-retinol [11,12-^3H2] and the effect of these inhibitors on LRAT. After this the control reaction mixture was incubated with atRA (60 & 6 μM), 13cRA (60 & 6 μM) or 4-HPR (60 & 6 μM) for 15 min. Now all the reaction mixtures were incubated with 30 μM of apo-rCRALBP (100 mM Tris pH 8.0, 7.7 μg of RPE protein, 0.2% BSA 100 μm of DPPC, 1 mM of DTT 30 μM apo-rCRALBP and 0.2 μM all-trans-retinol [11-12-^3H2]) at 37° C. for 30 minutes. At the end of this incubation period the 200 μL reaction mixture was quenched by the addition of 750 μL ice cold methanol after which 100 μL of 1M sodium chloride solution was added, and 500 μl hexane (containing butylated hydroxy toluene at 1 mg/mL) was added to effect extraction of the retinoids. The retinoids were analyzed as previously described (27). The amount of 11-cis-retinol formed was used as a measurement of IMH activity. All experiments were performed in triplicate and the average values of these measurements were used for analysis.
A control reaction mixture without any inhibitor was also incubated at room temperature for 15 min. At the end of the 15 min incubation, all-trans-retinol [11-12-^3H2] (0.2 μM) was added to the reaction mixtures (100 mM Tris pH 8.0, 76.7 μg of RPE protein, 0.2% BSA 100 μM of DPPC, 1 mM of DTT and 0.2 μM all-trans-retinol [11-12-^3H2]) and incubated at room temperature for 30 min. […] The retinoids were analyzed as previously described (27). […]

tLRAT = biological target: T1, tLRAT (Homo sapiens, UniProt O95237); assay: mRPE65 concentration-dependent esterification of vitamin A by tLRAT; type: biochemical; details: FIG. 11C
T1 construct: This form of LRAT has the two N and C-terminal transmembrane domains of LRAT truncated, and is His-tagged; made in house
T1 sequence (O95237 31-196 limits assumed): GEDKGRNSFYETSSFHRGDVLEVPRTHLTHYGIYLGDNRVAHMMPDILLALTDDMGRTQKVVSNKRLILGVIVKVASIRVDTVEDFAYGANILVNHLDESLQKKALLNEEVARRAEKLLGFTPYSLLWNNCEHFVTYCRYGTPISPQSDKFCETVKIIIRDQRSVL
Protocol: Effect of sRPE65 on tLRAT mediated esterification: The activity of LRAT was determined by monitoring the formation of tLRAT catalyzed retinyl esters from added all-trans-retinol [11,12-^3H2] sRPE65 and/or DPPC/dodecyl maltoside. In all of the studies reported here truncated LRAT (tLRAT) is used (Jahng et al., 2003b). This form of LRAT has the two N and C-terminal transmembrane domains of LRAT truncated, and is His-tagged which allows for the bacterial expression of LRAT and for its full purification (Bok et al., 2003). LRAT has never been purified and is not expressible in bacteria. Kinetic studies on LRAT and tLRAT show them to behave identically (Bok et al., 2003). […] The amount of all-trans-retinyl palmitate [11,12-^3H2] formed as determined by normal phase HPLC and was used as a measure of activity. […]
mRPE65 concentration-dependent esterification of vitamin A: The effect of mRPE65 concentration on the rates of all-trans-retinyl palmitate formation was determined by monitoring the tLRAT catalyzed formation of all-trans-retinyl palmitate from added [11,12-^3H2]-all-trans-retinol and mRPE65. […] The amount of all-trans-retinyl palmitate [11,12-^3H2] formed as determined by normal phase-HPLC and was used as a measure of activity. The kinetic paramaters KM (Kapp) and N were calculated as described before (Segal 1993). […]

Molecule: CCOC(=O)c1cccc(N)c1 [3-aminoethylbenzoate, ethyl 3-aminobenzoate]
A2E % formation (48 Hrs = 100) ([1]; amine added at 0 hrs): 3.98%
A2E % formation (48 Hrs = 100) ([1]; amine added at 2 hrs): 8.67%
A2E % formation (48 Hrs = 100) ([1]; amine added at 3.75 hrs): 7.71%
A2E % formation (48 Hrs = 100) ([1]; amine added at 14 hrs): 19.73%
A2E % formation (48 Hrs = 100) ([1]; amine added at 16.25 hrs): 19.25%
A2E % formation (48 Hrs = 100) ([1]; amine added at 18.0833 hrs): 23.70%
A2E % formation (48 Hrs = 100) ([1]; amine added at 19.91667 hrs): 27.65%
A2E % formation (48 Hrs = 100) ([1]; amine added at 23.75 hrs): 22.44%
A2E % formation (48 Hrs = 100) ([1]; amine added at 48 hrs): 100.00%

Molecule: CCCCCCCCCCC(=O)CC=C(C)CCC=C(C)CCC=C(C)C [Farnesyl decyl ketone, farnesyl decyl ketone]
reduction of total accumulation (abcr knockout mice): about 80%

Molecule: CC1=C(/C=C/C(C)=C/C=C/C(C)=C/C(=O)Nc2ccc(O)cc2)C(C)(C)CCC1 [N-(4-hydroxyphenyl)retinamide]
inhibition of 11-cis-retinol formation, pre-incubation with inhibitor ([2]; 60 μM or 6 μM, pre-incubation before vitamin A, FIG. 8): substantially weaker

Molecule: CCCCCCCCCCCCCCCCNC(=O)C/C=C(\C)CC/C=C(\C)CCC=C(C)C [N-Palmityl farnesimide, palmityl farnesimide]
reduction of total accumulation (abcr knockout mice): about 47%

Molecule: CC1=C(/C=C/C(C)=C/C=C/C(C)=C/C(=O)O)C(C)(C)CCC1 [all-trans-retinoic acid]
inhibition of 11-cis-retinol formation, membranes pre-incubated with vitamin A before inhibitor ([2]; 60 μM, data not shown): not susceptible to inhibition

Hill plot N (tLRAT): 2.54
B1: mRPE65: membrane-associated, palmitoylated form of RPE65; acts as palmitoyl donor for LRAT (protein, UniProt Q16518 2-533, looked up)
Retinoid isomerohydrolase: SIQVEHPAGGYKKLFETVEELSSPLTAHVTGRIPLWLTGSLLRCGPGLFEVGSEPFYHLFDGQALLHKFDFKEGHVTYHRRFIRTDAYVRAMTEKRIVITEFGTCAFPDPCKNIFSRFFSYFRGVEVTDNALVNVYPVGEDYYACTETNFITKINPETLETIKQVDLCNYVSVNGATAHPHIENDGTVYNIGNCFGKNFSIAYNIVKIPPLQADKEDPISKSEIVVQFPCSDRFKPSYVHSFGLTPNYIVFVETPVKINLFKFLSSWSLWGANYMDCFESNETMGVWLHIADKKRKKYLNNKYRTSPFNLFHHINTYEDNGFLIVDLCCWKGFEFVYNYLYLANLRENWEEVKKNARKAPQPEVRRYVLPLNIDKADTGKNLVTLPNTTATAILCSDETIWLEPEVLFSGPRQAFEFPQINYQKYCGKPYTYAYGLGLNHFVPDRLCKLNVKTKETWVWQEPDSYPSEPIFVSHPDALEEDDGVVLSVVVSPGAGQKPAYLLILNAKDLSEVARAEVEINIPVTFHGLFKKS
modifications: palmitoylated membrane-associated form
notes: membrane-associated, palmitoylated form of RPE65; acts as palmitoyl donor for LRAT

Reference: patent US7566808B2, “Management of ophthalmologic disorders, including macular degeneration” (President and Fellows of Harvard College, priority 2004, dated 2009)
